The supplement of paper PMC10307832

Assays:
Assay in all cases: relative viability (nuclei count vs DMSO), 5 days (fraction); higher = more cells survive
[1] = compound: Nc1ncn([C@H]2C[C@H](O)[C@@H](CO)O2)c(=O)n1 [Decitabine] + CCNC(=O)c1noc(-c2cc(C(C)C)c(O)cc2O)c1-c1ccc(CN2CCOCC2)cc1 [Luminespib] (partner 0.01 µM)
Outline: (§1)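 Relative viability was taken as the ratio of nuclei in treated wells to nuclei in vehicle wells. Lung cancer cell lines in 1536-well plates received compounds by pin tool one day after seeding, either one drug alone or a fixed anchor-drug dose plus five library-drug doses (not always all listed) in √10 steps. Nuclei were counted on 4× images after 5 days of treatment, and values are medians of duplicate plates.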

[2] = compound: Nc1ncn([C@H]2C[C@H](O)[C@@H](CO)O2)c(=O)n1 [Decitabine] + N=C(N)NC(=N)NCCc1ccccc1 [Phenformin] (partner 250 µM)
Outline: as §1

[3] = compound: O=C(C[C@H]1NCCC[C@@H]1O)Cn1cnc2cc(Br)c(Cl)cc2c1=O (racemic) [Halofuginone] + COc1cccc2cc(-c3nc([C@H]4CC[C@H](C(=O)O)CC4)n4ncnc(N)c34)[nH]c12 [OSI-027] (partner 0.5 µM)
Outline: as §1

[4] = compound: O=C(C[C@H]1NCCC[C@@H]1O)Cn1cnc2cc(Br)c(Cl)cc2c1=O (racemic) [Halofuginone] + C[C@@H](Oc1cc(-c2cnn(C3CCNCC3)c2)cnc1N)c1c(Cl)ccc(F)c1Cl [Crizotinib] (partner 1 µM)
Outline: as §1

Cell Line | relative viability ([1]; first compound 0.04 µM) | relative viability ([1]; first compound 0.1265 µM) | relative viability ([1]; first compound 0.4 µM) | relative viability ([1]; first compound 4 µM) | relative viability ([2]; first compound 0.04 µM) | relative viability ([2]; first compound 0.1265 µM) | relative viability ([2]; first compound 0.4 µM) | relative viability ([2]; first compound 4 µM) | relative viability ([3]; first compound 0.001 µM) | relative viability ([3]; first compound 0.003162 µM) | relative viability ([3]; first compound 0.01 µM) | relative viability ([3]; first compound 0.03162 µM) | relative viability ([3]; first compound 0.1 µM) | relative viability ([4]; first compound 0.001 µM) | relative viability ([4]; first compound 0.003162 µM) | relative viability ([4]; first compound 0.01 µM) | relative viability ([4]; first compound 0.03162 µM) | relative viability ([4]; first compound 0.1 µM) | relative viability ([2]; first compound 1.265 µM) | relative viability ([1]; first compound 1.265 µM)
201T | 0.984 | 0.987 | 1.07 | 0.75 | 0.42 | 0.454 | 0.518 | 0.409 | 0.755 | 0.775 | 0.713 | 0.474 | 0.256 | 0.966 | 1.02 | 1.04 | 1.05 | 0.964 |  | 
A549 |  |  |  |  | 0.145 | 0.139 | 0.157 | 0.0645 |  |  |  |  |  | 0.824 | 0.75 | 0.611 | 0.338 | 0.0443 | 0.0732 | 
A-427 | 0.65 | 0.466 | 0.303 | 0.227 | 0.239 | 0.265 | 0.19 | 0.164 | 0.472 | 0.483 | 0.385 | 0.445 | 0.419 | 0.941 | 0.911 | 0.795 | 0.807 | 0.764 | 0.18 | 0.262
ABC-1 |  | 0.807 | 0.521 | 0.331 | 0.238 | 0.231 | 0.25 | 0.212 | 0.413 | 0.454 | 0.504 | 0.601 | 0.417 | 1.09 | 1.08 | 0.954 | 1.26 | 1.15 | 0.252 | 0.345
BEN | 0.332 | 0.373 | 0.243 | 0.242 | 0.28 | 0.261 | 0.259 | 0.245 | 0.341 | 0.287 | 0.299 | 0.288 | 0.247 | 0.979 | 0.784 | 1.07 | 0.772 | 0.479 | 0.239 | 0.282
CAL-12T | 0.612 | 0.359 |  | 0.249 | 0.517 | 0.633 |  | 0.339 | 0.872 | 0.771 | 0.707 | 0.807 | 0.414 | 0.733 | 0.835 | 0.527 | 0.834 | 0.237 | 0.372 | 0.298
COR-L23 | 0.331 | 0.402 | 0.298 | 0.148 | 0.362 | 0.311 | 0.303 | 0.253 | 0.769 | 0.86 | 0.72 | 0.677 | 0.302 | 0.822 | 0.78 | 0.624 | 0.62 | 0.0779 | 0.253 | 0.222
COR-L 105 | 0.561 | 0.517 | 0.714 | 0.571 | 0.308 | 0.441 | 0.383 | 0.421 | 0.667 | 0.637 | 0.603 | 0.656 | 0.466 | 1.01 | 0.853 | 0.722 | 0.718 | 0.515 | 0.308 | 0.469
Calu-6 |  |  |  |  |  |  |  |  |  |  |  |  |  | 0.882 | 0.814 | 0.82 | 0.407 | 0.151 |  | 
ChaGo-K-1 | 0.584 | 0.487 | 0.33 | 0.39 | 0.435 | 0.413 | 0.301 | 0.336 | 0.537 | 0.605 | 0.528 | 0.537 | 0.501 | 1.18 | 1.2 | 1.03 | 1.11 | 0.975 | 0.271 | 0.277
EBC-1 |  |  |  |  |  |  |  |  |  |  |  |  |  | 0.186 | 0.202 | 0.188 | 0.223 | 0.2 |  | 
EKVX | 0.68 | 0.682 | 0.551 | 0.322 | 0.223 | 0.22 | 0.227 | 0.202 | 0.656 | 0.789 | 0.773 | 0.499 | 0.539 | 0.921 | 0.9 | 1.04 | 0.891 | 0.635 | 0.177 | 0.389
EMC-BAC-2 | 1.02 | 0.927 | 0.715 | 0.584 | 0.514 | 0.541 | 0.462 | 0.406 | 0.4 | 0.397 | 0.38 | 0.4 | 0.315 | 0.856 | 0.805 | 0.778 | 0.769 | 0.32 | 0.414 | 0.602
EPLC-272H |  | 0.561 | 0.249 | 0.321 |  | 0.26 | 0.0458 | 0.199 | 0.342 | 0.278 | 0.262 | 0.29 | 0.257 | 0.871 | 0.928 | 0.879 | 0.807 | 0.774 | 0.223 | 0.227
H3255 |  | 0.765 | 0.64 | 0.601 |  | 0.339 | 0.364 | 0.347 | 0.598 | 0.55 | 0.602 | 0.601 | 0.553 | 0.94 | 0.948 | 0.875 | 0.952 | 0.791 | 0.291 | 0.657
HARA | 0.802 | 0.544 | 0.34 | 0.158 | 0.307 | 0.36 | 0.236 | 0.125 | 0.68 | 0.631 | 0.536 | 0.566 | 0.399 | 1.17 | 1.05 | 0.985 | 1.05 | 0.943 | 0.148 | 0.144
HCC-15 | 0.301 | 0.38 | 0.267 | 0.195 | 0.448 | 0.49 | 0.252 | 0.333 | 0.709 | 0.667 | 0.644 | 0.709 | 0.509 | 0.827 | 0.887 | 0.737 | 0.826 | 0.657 | 0.327 | 0.191
HCC-44 |  | 0.848 | 0.52 | 0.471 | 0.136 | 0.196 | 0.0892 | 0.13 | 0.505 | 0.613 | 0.444 | 0.379 | 0.202 | 0.89 | 0.833 | 0.72 | 0.745 | 0.516 | 0.136 | 0.618
